Values after ≈ are worked out from the molar mass of the structure shown.

This note sets out measurements from PubChem BioAssay AID1996.

The conditions of the series: buffer; pH 7.4; 200.0 µM.
The term kinetic solubility denotes the concentration staying in solution when a stock, usually in DMSO, is diluted into the medium. `COC(=O)COc1c(Cl)cc(Cl)c2ccc(C)nc12` returned a solubility (kinetic) of 6.7 µg/mL (≈ 22.3 µM).
Regarding `CC(C)CC(OC(=O)c1ccco1)C(=O)NC1CCCC1` (stereo not drawn), the kinetic solubility stood at 41.1 µg/mL (≈ 140 µM).
`Cc1ccc(OCC(=O)N2CCC3(CC2)CC(=O)c2ccccc2O3)cc1` returned a solubility (kinetic) of 54.2 µg/mL (≈ 148 µM). The solubility kinetic values of the last two compounds are within 1.5-fold of each other.
`O=C(NCC(c1ccco1)N1CCOCC1)c1cccc(Cl)c1` (stereo not drawn) yielded a kinetic solubility of more than 50.2 µg/mL.
As for `CCN(CC)S(=O)(=O)c1ccc(Cl)nc1`, the figure is 34.3 µg/mL (≈ 138 µM); as for `O=C(COC(=O)c1ccc2ccccc2n1)Nc1ccccc1F`, 8.9 µg/mL (≈ 27.4 µM); as for `Cc1nc(C)c(C(=O)OC(C)C(=O)Nc2ccc(F)cc2)s1` (stereo not drawn), more than 48.4 µg/mL.
On to `CCNc1nc(SCC(N)=O)nc2sc3c(c12)CCN(C)C3`, for which the solubility (kinetic) was more than 50.6 µg/mL.
As for `Cc1cn(C2OC(CC(=O)Oc3ccccc3)C(O)C2O)c(=O)[nH]c1=O` (stereo not drawn), the figure is 48.5 µg/mL (≈ 134 µM); as for `CCC1(C)Cc2c(sc3nc(SC)[nH]c(=O)c23)CO1` (stereo not drawn), 7.9 µg/mL (≈ 26.7 µM).
For `O=C1/C(=C/c2ccc([N+](=O)[O-])cc2)Oc2cc(O)ccc21`, the kinetic solubility is 6.1 µg/mL (≈ 21.5 µM).
`Nc1ncn([C@@H]2O[C@H](CO)[C@@H](O)[C@H]2O)c(=O)n1` yielded a solubility (kinetic) of more than 36.6 µg/mL.
As for `O=C(NCCc1ccc2c(c1)OCCO2)c1ccccn1`, the figure is more than 42.6 µg/mL; as for `O=C1c2ccccc2C(=O)N1OS(=O)(=O)c1ccc(F)cc1`, more than 48.2 µg/mL; as for `Cn1c(=O)oc2cc(S(=O)(=O)Nc3ccccc3F)ccc21`, 15.6 µg/mL (≈ 48.4 µM).
The compound `CCN(Cc1ccccc1)C(=O)c1cccnc1` returned a kinetic solubility of 35.9 µg/mL (≈ 149 µM).
As for `CSc1ccc(Cl)c(C(=O)OCC(=O)N2CCNC2=O)c1`, the figure is more than 49.3 µg/mL.
Take `Cc1onc(-c2c(Cl)cccc2Cl)c1C(=O)Nc1nccs1`: the kinetic solubility amounted to 4.7 µg/mL (≈ 13.3 µM).
In the case of `COCCCNC(=S)Nc1ccc(C)cc1` it was more than 35.8 µg/mL; in that of `COc1cc(C)c(NC(=S)NCCCN2CCOCC2)cc1OC`, more than 53 µg/mL; in that of `Cc1ccccc1NC(=O)C(NC1CCCCC1)C(C)C` (stereo not drawn), 6.7 µg/mL (≈ 23.2 µM).
`CCC(C(=O)Nc1nc(C)c(C)s1)c1ccccc1` (stereo not drawn) displayed a solubility (kinetic) of 38.3 µg/mL (≈ 140 µM).
On to `Cn1ccsc1=NC(=O)c1ccc(OC(F)(F)F)cc1`, for which the kinetic solubility was determined as 9.3 µg/mL (≈ 30.8 µM).
In the case of `COc1ccc(NC(=S)Nc2cccc3cnccc23)cc1` it was 9.9 µg/mL (≈ 32 µM); in that of `CC(Sc1ccc(S(=O)(=O)N2CCCC2)cn1)C(N)=O` (stereo not drawn), more than 47.3 µg/mL.
In the case of `CC(=O)Nc1ccc(-c2nc3ccc(NC(C)=O)cc3o2)cc1` it was 2.2 µg/mL (≈ 7.11 µM); in that of `CCOC(=O)C1C2C=CC3(CN(Cc4ccccc4)C(=O)C13)O2` (stereo not drawn), more than 47 µg/mL; in that of `CC(=O)Nc1ccc(SCC(=O)Nc2ccc(Cl)cn2)cc1`, 9.6 µg/mL (≈ 28.6 µM).
In the case of `CCC(C(=O)OC)(C(=O)OC)c1ccc([N+](=O)[O-])cc1` it was more than 42.2 µg/mL; in that of `COc1ccc(Cc2noc(-c3ccc([N+](=O)[O-])cc3)n2)cc1OC`, 2 µg/mL (≈ 5.86 µM); in that of `CC(C)S(=O)(=O)c1csc(NC(=O)Nc2cccc([N+](=O)[O-])c2)c1Cl`, less than 0.3 µg/mL.
Turning to `CC(=O)Nc1sc(C)c(C)c1C(=O)OCCOc1ccccc1`, the solubility (kinetic) worked out at 1.6 µg/mL (≈ 4.8 µM).
As for `CCOC(=O)c1c(C)[nH]c(C(=O)COc2ccc3ccc(=O)oc3c2)c1C`, the figure is 9.2 µg/mL (≈ 24.9 µM); as for `O=C(COC(=O)c1cccc(F)c1)Nc1ccc(Cl)cn1`, 6.2 µg/mL (≈ 20.1 µM).
Turning to `O=C(NCc1csc2ccc(Cl)cc12)Nc1ccccc1`, the kinetic solubility is less than 0.3 µg/mL.
In the case of `O=C(COC(=O)c1cc(Cl)nc(Cl)c1)NC1CCCCCC1` it was 5.9 µg/mL (≈ 17.1 µM).
As for `COc1ccc(C(=O)O/N=C(\C)c2cnccn2)cc1`, the figure is 9 µg/mL (≈ 33.2 µM); as for `Cn1c(Nc2ccccc2)cc(=O)n(C)c1=O`, more than 34.7 µg/mL; as for `O=C(O)CC/C(=N\NC(=O)CNC(=O)/C=C/c1ccccc1)c1ccccc1`, more than 56.9 µg/mL.
`COc1cccc(CN2CCN(Cc3cccc(F)c3)CC2)c1.O=C(O)C(=O)O` yielded a solubility (kinetic) of 46.5 µg/mL.
`Cc1ccc(CNC(=O)CCCc2cn(C)c3ccccc23)cc1` returned a kinetic solubility of 0.4 µg/mL (≈ 1.25 µM).
`COC(=O)c1ccc(NC(=O)c2ccc3c(c2)C(=O)N(C)C3=O)cc1` gave a kinetic solubility of less than 0.4 µg/mL.
With `O=C(NC1CCSc2ccccc21)c1ccc([N+](=O)[O-])cc1` (stereo not drawn), the kinetic solubility amounted to 3.5 µg/mL (≈ 11.1 µM).
As for `Cc1cnc(C(=O)Nc2ccc(N3CCCCC3)cc2)cn1`, the figure is 4.2 µg/mL (≈ 14.2 µM); as for `COc1ccc(OCCCC(=O)Nc2nc(C)c(C(C)=O)s2)cc1`, 1.3 µg/mL (≈ 3.73 µM); as for `CC(=O)CSc1ccc(-c2nc3ccccc3[nH]2)cn1`, more than 42.5 µg/mL.
As for `COc1ccc(CC(=O)Nc2cccc3c2CCCC3)cc1`, the figure is 1.8 µg/mL (≈ 6.09 µM); as for `CCCCc1c(O)nc(SCC(=O)N2CCCCC2)[nH]c1=O`, more than 48.8 µg/mL.
As for `CCc1sc(C(=O)Nc2nc(-c3ccccn3)cs2)cc1C`, the figure is 2.9 µg/mL (≈ 8.8 µM).
In turn, `CC(C)(C)CC(=O)O/N=C(\N)c1ccncc1` had a kinetic solubility of more than 35.3 µg/mL.
As for `c1ccc2c(c1)COC(CN1CCCCC1)OC2`, the figure is 35.6 µg/mL (≈ 144 µM).
As for `Cc1cccc(NS(=O)(=O)c2c(C)noc2C)c1`, the figure is more than 39.9 µg/mL.
`COc1ccc(C(=O)N=c2sc3ccccc3n2C)cc1OC` showed a kinetic solubility of less than 0.4 µg/mL.
`COc1ccccc1CNC(=O)COC(=O)c1ccccn1`: the kinetic solubility was more than 45 µg/mL.
In the case of `COc1cc(CC(=O)NCCCc2ccccc2)cc(OC)c1OC` it was more than 51.5 µg/mL.
`CN(C)c1cc(Nc2cccc(O)c2)c([N+](=O)[O-])c2nonc12` displayed a solubility (kinetic) of 0.4 µg/mL (≈ 1.27 µM).
On to `CCOC(=O)c1ccc(NC(=O)c2cccnc2)cc1`, for which the solubility (kinetic) is more than 40.5 µg/mL.
`CS(=O)(=O)N(CC(=O)O)c1ccc(C23CC4CC(CC(C4)C2)C3)cc1` registered a solubility (kinetic) of 49.5 µg/mL (≈ 136 µM).
In the case of `COc1ccc(C2(C)CC(C)(C)Nc3ccccc32)cc1` (stereo not drawn) it was 5.7 µg/mL (≈ 20.3 µM); in that of `CNC(=O)NC(=O)Cn1cnc2sc(-c3ccccc3)cc2c1=O`, 0.4 µg/mL (≈ 1.17 µM); in that of `Cc1ccc(NC(=O)Nc2cnc3ccccc3c2)cc1`, 0.3 µg/mL (≈ 1.08 µM).
In the case of `COc1c(C)cc(Br)cc1C(=O)Nc1ccccc1C` it was less than 0.7 µg/mL; in that of `Cc1ccccc1Nc1nc(N)nc(COC(=O)c2ccco2)n1`, more than 48.8 µg/mL.
For the compound `O=c1c(Cl)c2oc3ccccc3nc-2c2ccccc12`, the solubility (kinetic) turned out to be 4.2 µg/mL (≈ 14.9 µM).
As for `O=C(NCCNS(=O)(=O)c1ccccc1)c1ccc([N+](=O)[O-])cc1`, the figure is 51.1 µg/mL (≈ 146 µM); as for `CCOC(=O)CNC(=O)CSc1nc(-c2ccccc2)ns1`, more than 50.6 µg/mL.
Compound `N#CC1CCCc2c1[nH]c1ccc([N+](=O)[O-])cc21` (stereo not drawn) returned a solubility (kinetic) of 20.8 µg/mL (≈ 86.2 µM).
In the case of `C=CCNC(=O)CN(Cc1ccccc1)S(=O)(=O)c1ccccc1` it was more than 51.7 µg/mL.
In the case of `COc1ccc(C(=O)NC(=S)NC2CCCCC2)cc1` it was 4.8 µg/mL (≈ 16.4 µM).
As for `Cc1ccc(Cc2cnc(NC(=O)C3=NCCN3)s2)cc1`, the solubility (kinetic) amounted to 11.5 µg/mL (≈ 38.3 µM).
For `CCCN(CC1CC1)C(=O)COC(=O)c1ccc(C)cc1O`, the kinetic solubility was more than 45.8 µg/mL.
As for `CCOC(=O)Cc1cc(C)[nH]c1C(=O)OCC`, the figure is 34.7 µg/mL (≈ 145 µM); as for `CCOC(=O)c1ccc(N2C(=O)CC(Sc3nc(C)cc(C)n3)C2=O)cc1` (stereo not drawn), 4 µg/mL (≈ 10.4 µM); as for `Cc1ccc(C(=O)Nc2ccc(NC(=O)c3ccc(C)o3)cc2)o1`, 1.7 µg/mL (≈ 5.24 µM).
For `Cc1cccc(N2CC(C(=O)O)CC2=O)c1C` (stereo not drawn), the solubility (kinetic) is more than 35 µg/mL.
As for `O=C(Nc1ccc(S(=O)(=O)N2CCCCC2)cc1)C1CCCO1` (stereo not drawn), the figure is 39.9 µg/mL (≈ 118 µM); as for `O=C(NNC(=O)c1cccs1)c1ccc(Cl)nc1`, more than 42.3 µg/mL.
In the case of `CC1CCC(NC(=O)CN2C(=O)c3ccccc3S2(=O)=O)CC1` (stereo not drawn) it was more than 50.5 µg/mL.
`CCOC(=O)/C(C#N)=C/C1=C(N2CCOCC2)C(C)(C)OCC1`: the kinetic solubility is more than 48.1 µg/mL.
Compound `CCOC(=O)c1sc(-c2ccccn2)nc1C` displayed a kinetic solubility of 23.4 µg/mL (≈ 94.2 µM).
In the case of `CC1CCCC(C)N1C(=O)CSc1nc(N)cc(N)n1` (stereo not drawn) it was more than 44.3 µg/mL.
For `O=C(Nc1nc2ccccc2[nH]1)c1ccc(Cl)cc1`, the kinetic solubility worked out at 1.8 µg/mL (≈ 6.62 µM).
As for `COc1ccc(-c2cc(C(=O)N3CCCCC3)c3ccccc3n2)cc1OC`, the figure is 51.6 µg/mL (≈ 137 µM).
Take `Cc1cc([N+](=O)[O-])c2c(c1C)C1C=CCC1C(c1ccccn1)N2` (stereo not drawn): the kinetic solubility worked out at 9.3 µg/mL (≈ 28.9 µM).
In the case of `Cc1ccc(C(OCC(O)CN2CCCCC2)c2ccccc2)cc1` (stereo not drawn) it was 40.2 µg/mL (≈ 118 µM).
Regarding `CC(=O)Nc1ccc(S(=O)(=O)NC(C)c2ccccc2)cc1` (stereo not drawn), the solubility (kinetic) is more than 47.8 µg/mL.
As for `O=C(COc1ccc(Cl)cc1)NCCCNC(=O)c1ccccn1`, the figure is 50.5 µg/mL (≈ 145 µM); as for `Cc1noc(C)c1COc1ccc(C(=O)NCc2cccs2)cc1`, 16.5 µg/mL (≈ 48.2 µM); as for `Cc1ccc(F)cc1NC(=O)c1cnccn1`, more than 34.7 µg/mL.
`CN1C(=O)c2ccccc2N(C)C1c1ccccc1Cl` (stereo not drawn) displayed a solubility (kinetic) of more than 43 µg/mL.
`CC(CCc1ccccc1)NC(=O)Cc1ccc(Br)cc1` (stereo not drawn): the kinetic solubility was 2.5 µg/mL (≈ 7.22 µM).
Take `O=C(COC(=O)c1ccc([N+](=O)[O-])o1)Nc1ccc(Br)cc1F`: the kinetic solubility came to 21 µg/mL (≈ 54.2 µM).
As for `CN(C)C(CNC(=O)CSC(=S)N1CCCC1)c1ccccc1` (stereo not drawn), the figure is more than 52.7 µg/mL.
In the case of `N/C(CCS(=O)(=O)c1ccc(Cl)cc1)=N\OC(=O)c1ccccc1C(F)(F)F`, the kinetic solubility was 57 µg/mL (≈ 131 µM).
In turn, `CCCNC(=S)Nc1ccc(F)cc1F` displayed a kinetic solubility of more than 34.5 µg/mL.
As for `O=C(COC(=O)COc1ccccc1)Nc1ccc(Cl)cn1`, the figure is 13.3 µg/mL (≈ 41.5 µM); as for `COc1ccc2c(c1)C(C)CC(C)(C)N2C(=O)Nc1ccccc1` (stereo not drawn), 13.4 µg/mL (≈ 41.3 µM); as for `CCOc1ccc(S(=O)(=O)NC(C)C(=O)NCc2ccncc2)cc1` (stereo not drawn), more than 54.5 µg/mL.
As for `CSCc1c(C(=O)Nc2ccc3c(c2)OCO3)oc2ccccc12`, the figure is 6.4 µg/mL (≈ 18.7 µM); as for `O=C(NCc1ccc2c(c1)OCO2)Nc1ccc(F)cc1`, 3.1 µg/mL (≈ 10.8 µM); as for `COc1ccc(CCNC(=O)c2noc(C(C)C)c2[N+](=O)[O-])cc1OC`, more than 54.5 µg/mL.
As for `CC(=O)NC1C(=O)N=C(SCC(=O)Nc2c(C)cccc2C)NC1=O` (stereo not drawn), the figure is more than 54.4 µg/mL.
`CCN1CCN(C(=O)c2cc3ccc(OC)cc3[nH]2)CC1` registered a kinetic solubility of more than 43.1 µg/mL.
